The source made the active and inactive calls.
What was measured:
[1] = molecular target: T1, Serine/threonine-protein kinase D3 (Homo sapiens, UniProt O94806)
T1 sequence (O94806 whole entry): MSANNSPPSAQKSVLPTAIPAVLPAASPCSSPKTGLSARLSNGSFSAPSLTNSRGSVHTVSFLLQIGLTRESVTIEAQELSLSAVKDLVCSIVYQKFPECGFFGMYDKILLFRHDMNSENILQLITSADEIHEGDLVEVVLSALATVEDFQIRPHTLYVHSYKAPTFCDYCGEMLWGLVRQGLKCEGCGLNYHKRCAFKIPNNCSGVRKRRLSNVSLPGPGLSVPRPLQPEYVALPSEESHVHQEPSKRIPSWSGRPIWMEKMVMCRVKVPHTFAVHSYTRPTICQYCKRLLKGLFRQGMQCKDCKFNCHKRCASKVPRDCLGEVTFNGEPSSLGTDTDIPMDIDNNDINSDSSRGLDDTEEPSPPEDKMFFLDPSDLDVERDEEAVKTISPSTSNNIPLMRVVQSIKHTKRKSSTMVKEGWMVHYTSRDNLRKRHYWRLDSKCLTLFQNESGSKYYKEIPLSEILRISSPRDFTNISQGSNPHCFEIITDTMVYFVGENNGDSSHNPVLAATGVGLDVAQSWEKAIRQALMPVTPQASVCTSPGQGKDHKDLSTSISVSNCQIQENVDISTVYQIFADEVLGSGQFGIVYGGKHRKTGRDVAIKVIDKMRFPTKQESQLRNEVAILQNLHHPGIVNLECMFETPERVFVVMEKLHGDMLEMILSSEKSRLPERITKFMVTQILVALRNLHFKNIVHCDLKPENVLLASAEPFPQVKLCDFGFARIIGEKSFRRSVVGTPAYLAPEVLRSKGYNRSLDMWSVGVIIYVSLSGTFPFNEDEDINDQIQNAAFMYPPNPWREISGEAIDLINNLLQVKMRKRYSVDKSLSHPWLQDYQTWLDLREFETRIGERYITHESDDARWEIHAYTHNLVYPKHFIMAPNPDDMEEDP

[2] = molecular target: T2, Acyl-CoA dehydrogenase family member 10 (Homo sapiens, UniProt Q6JQN1)
T2 sequence (Q6JQN1 whole entry): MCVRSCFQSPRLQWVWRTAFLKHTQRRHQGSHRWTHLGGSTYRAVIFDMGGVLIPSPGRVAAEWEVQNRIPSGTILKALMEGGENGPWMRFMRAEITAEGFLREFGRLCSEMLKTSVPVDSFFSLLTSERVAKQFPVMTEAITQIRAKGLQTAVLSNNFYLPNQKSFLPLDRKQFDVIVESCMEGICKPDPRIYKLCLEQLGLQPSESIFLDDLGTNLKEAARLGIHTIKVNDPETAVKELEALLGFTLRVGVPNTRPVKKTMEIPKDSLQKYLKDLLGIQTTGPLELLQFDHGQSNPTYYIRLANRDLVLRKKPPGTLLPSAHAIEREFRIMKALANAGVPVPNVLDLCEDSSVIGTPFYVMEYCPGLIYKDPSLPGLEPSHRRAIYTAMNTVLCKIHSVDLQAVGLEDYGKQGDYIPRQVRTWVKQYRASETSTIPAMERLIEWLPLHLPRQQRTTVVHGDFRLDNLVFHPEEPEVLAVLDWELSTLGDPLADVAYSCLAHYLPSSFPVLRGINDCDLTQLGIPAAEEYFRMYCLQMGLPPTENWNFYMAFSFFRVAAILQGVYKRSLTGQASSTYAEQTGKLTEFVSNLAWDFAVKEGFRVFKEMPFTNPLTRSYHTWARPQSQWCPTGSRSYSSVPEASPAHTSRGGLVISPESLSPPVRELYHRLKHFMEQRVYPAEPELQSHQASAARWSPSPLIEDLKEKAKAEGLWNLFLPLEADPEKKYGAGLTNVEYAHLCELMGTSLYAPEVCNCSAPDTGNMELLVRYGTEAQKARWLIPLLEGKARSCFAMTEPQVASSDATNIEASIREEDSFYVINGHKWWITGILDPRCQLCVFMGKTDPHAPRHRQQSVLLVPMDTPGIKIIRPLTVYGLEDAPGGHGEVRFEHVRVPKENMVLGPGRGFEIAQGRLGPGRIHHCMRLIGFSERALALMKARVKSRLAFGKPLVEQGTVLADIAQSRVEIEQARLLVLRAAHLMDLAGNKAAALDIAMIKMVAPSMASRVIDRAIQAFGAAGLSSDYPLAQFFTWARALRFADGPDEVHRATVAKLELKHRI

[3] = molecular target: GTP-binding nuclear protein Ran (Homo sapiens, UniProt P62826)
[4] = molecular target: Tyrosine-protein kinase JAK1 (Homo sapiens, UniProt P23458)
[5] = molecular target: Chromodomain-helicase-DNA-binding protein 4 (Homo sapiens, UniProt Q14839)
[6] = molecular target: Ribosomal protein S6 kinase alpha-5 (Homo sapiens, UniProt O75582)
[7] = molecular target: Guanine nucleotide-binding protein G(i) subunit alpha-2 (Homo sapiens, UniProt P04899)
Further: in the data inactive means no Kd found up to 30 µM.

Ribosomal protein S6 kinase alpha-5, sequence (O75582 whole entry): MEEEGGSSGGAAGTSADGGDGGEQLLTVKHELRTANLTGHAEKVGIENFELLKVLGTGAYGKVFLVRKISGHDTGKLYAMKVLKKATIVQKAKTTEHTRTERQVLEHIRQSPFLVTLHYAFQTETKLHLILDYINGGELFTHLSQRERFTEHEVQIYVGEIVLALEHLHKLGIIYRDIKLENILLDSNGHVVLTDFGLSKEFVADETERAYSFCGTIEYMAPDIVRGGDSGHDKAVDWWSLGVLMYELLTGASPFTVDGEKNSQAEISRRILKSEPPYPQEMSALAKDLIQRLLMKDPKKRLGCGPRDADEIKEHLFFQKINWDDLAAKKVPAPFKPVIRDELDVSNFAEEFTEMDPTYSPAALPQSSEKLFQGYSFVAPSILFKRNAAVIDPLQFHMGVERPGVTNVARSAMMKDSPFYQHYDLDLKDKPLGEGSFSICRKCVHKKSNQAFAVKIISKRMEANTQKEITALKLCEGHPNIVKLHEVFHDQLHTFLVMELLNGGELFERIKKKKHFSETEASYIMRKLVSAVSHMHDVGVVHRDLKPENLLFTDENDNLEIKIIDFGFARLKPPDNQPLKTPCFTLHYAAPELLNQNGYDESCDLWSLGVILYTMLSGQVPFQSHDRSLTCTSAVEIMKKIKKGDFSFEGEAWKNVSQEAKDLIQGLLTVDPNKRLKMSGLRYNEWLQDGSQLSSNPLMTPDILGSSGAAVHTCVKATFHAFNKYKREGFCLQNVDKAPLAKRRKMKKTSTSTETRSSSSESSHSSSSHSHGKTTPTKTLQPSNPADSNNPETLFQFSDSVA
Tyrosine-protein kinase JAK1, sequence (P23458 whole entry): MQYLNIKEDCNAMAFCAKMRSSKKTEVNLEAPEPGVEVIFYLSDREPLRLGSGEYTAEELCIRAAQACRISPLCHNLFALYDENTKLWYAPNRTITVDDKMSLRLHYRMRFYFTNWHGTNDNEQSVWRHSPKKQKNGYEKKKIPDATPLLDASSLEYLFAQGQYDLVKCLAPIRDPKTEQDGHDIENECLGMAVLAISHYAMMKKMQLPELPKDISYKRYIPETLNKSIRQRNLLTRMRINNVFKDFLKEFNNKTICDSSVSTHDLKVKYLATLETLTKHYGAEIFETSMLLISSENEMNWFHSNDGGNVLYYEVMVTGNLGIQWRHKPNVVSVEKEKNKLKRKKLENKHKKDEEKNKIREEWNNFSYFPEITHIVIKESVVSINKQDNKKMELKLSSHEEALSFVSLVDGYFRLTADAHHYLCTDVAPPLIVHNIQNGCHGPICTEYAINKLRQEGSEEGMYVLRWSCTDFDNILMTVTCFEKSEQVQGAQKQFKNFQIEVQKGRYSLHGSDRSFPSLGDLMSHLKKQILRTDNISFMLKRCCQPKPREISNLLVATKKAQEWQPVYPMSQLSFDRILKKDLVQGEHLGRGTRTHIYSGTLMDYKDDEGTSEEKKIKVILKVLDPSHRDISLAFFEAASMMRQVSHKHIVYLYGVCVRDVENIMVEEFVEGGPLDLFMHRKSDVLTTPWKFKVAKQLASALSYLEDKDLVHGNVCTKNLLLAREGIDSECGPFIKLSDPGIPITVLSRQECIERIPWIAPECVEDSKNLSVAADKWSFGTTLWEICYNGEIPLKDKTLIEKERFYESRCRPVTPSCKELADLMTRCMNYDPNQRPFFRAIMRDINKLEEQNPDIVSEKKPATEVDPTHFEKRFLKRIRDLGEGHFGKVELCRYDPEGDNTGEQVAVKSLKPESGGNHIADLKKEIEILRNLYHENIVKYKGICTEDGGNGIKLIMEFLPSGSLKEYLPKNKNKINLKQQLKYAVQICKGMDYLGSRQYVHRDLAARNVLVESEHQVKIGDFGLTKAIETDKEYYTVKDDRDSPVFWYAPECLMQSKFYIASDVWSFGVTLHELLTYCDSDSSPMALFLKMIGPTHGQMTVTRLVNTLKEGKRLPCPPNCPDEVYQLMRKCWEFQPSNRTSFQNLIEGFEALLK
Guanine nucleotide-binding protein G(i) subunit alpha-2, sequence (P04899 whole entry): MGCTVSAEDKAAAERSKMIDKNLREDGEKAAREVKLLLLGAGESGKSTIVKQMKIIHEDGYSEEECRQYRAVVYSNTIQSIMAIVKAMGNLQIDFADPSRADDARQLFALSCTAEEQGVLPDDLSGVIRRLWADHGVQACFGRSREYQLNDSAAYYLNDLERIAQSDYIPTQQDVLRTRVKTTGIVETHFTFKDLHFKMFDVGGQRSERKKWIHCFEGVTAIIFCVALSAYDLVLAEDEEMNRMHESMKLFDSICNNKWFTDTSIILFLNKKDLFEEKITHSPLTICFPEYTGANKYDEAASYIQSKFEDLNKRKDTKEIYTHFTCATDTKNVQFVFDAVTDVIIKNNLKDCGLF
Chromodomain-helicase-DNA-binding protein 4, sequence (Q14839 whole entry): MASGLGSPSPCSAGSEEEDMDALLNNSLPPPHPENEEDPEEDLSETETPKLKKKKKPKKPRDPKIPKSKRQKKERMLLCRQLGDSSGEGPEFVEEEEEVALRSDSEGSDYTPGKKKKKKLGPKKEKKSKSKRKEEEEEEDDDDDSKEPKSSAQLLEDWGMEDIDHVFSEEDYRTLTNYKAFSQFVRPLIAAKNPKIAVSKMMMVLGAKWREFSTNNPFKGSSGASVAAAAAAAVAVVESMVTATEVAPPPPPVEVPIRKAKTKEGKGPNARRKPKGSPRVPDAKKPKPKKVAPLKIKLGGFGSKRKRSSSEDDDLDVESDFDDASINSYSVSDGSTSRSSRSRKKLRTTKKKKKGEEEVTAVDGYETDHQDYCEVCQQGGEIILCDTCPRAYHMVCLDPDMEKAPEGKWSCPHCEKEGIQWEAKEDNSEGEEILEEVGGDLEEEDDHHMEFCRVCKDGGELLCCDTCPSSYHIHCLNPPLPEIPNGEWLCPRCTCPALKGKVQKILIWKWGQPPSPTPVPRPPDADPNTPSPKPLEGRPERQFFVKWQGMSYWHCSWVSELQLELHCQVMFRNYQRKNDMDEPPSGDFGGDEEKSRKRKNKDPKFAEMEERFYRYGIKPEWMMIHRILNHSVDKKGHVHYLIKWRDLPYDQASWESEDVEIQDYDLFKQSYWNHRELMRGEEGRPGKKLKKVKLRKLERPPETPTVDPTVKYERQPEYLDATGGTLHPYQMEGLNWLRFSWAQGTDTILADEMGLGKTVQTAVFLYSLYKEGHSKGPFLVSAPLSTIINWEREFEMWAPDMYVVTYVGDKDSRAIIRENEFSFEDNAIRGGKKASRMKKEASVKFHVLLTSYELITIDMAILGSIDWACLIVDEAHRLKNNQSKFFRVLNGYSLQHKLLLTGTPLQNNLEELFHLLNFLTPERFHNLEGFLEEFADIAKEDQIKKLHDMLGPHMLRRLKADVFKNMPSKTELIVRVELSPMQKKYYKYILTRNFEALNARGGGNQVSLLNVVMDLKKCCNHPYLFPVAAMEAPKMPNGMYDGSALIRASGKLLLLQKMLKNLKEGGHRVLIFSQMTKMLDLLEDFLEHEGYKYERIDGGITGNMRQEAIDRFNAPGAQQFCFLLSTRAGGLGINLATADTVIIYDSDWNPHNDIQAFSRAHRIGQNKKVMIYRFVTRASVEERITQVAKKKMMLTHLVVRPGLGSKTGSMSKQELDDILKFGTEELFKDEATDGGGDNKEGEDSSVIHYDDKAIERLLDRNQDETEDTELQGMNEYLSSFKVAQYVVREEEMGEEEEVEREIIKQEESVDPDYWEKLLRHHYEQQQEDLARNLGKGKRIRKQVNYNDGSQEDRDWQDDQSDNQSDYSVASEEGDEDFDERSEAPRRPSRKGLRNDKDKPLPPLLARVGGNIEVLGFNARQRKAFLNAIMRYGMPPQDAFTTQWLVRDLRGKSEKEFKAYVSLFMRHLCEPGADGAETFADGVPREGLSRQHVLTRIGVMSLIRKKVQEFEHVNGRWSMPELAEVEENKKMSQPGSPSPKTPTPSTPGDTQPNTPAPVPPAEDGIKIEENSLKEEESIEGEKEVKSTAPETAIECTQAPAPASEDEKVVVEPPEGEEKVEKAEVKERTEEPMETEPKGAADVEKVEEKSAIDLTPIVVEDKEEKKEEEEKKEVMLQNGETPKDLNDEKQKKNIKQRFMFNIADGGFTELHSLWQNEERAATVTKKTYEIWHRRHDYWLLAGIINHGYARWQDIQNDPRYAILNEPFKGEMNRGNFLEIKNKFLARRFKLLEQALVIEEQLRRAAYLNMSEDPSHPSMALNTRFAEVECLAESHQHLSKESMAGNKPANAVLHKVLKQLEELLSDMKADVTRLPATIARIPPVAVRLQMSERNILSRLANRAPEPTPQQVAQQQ

SMILES | Kd [1] | Kd [2] | Kd [3] | Kd [4] | Kd [5] | Kd [6] | Kd [7]
CC(=O)c1cnc2ccc(-c3cc(Cl)c(O)c(Cl)c3)nc2c1N[C@H]1CC[C@H](CN(C)C)CC1 | 0.093 µM (active) | > 30 µM (inactive) | > 30 µM (inactive) | > 30 µM (inactive) | > 30 µM (inactive) | 0.298 µM (active) | 
C=CC(=O)N1CCC[C@H](n2c(=O)n(-c3ccc(Oc4ccccc4)cc3)c3c(N)ncnc32)C1 | > 30 µM (inactive) | > 30 µM (inactive) | > 30 µM (inactive) | > 30 µM (inactive) |  | > 30 µM (inactive) | 
COCc1c(-c2ccc(NC(=O)Nc3cc(C(F)(F)F)ccc3F)c(F)c2)c2c(N)ncnn2c1CN1CCOCC1 | > 30 µM (inactive) | > 30 µM (inactive) | > 30 µM (inactive) | > 30 µM (inactive) | > 30 µM (inactive) | > 30 µM (inactive) | 
COc1cc(Nc2ncc3c(n2)-c2ccc(Cl)cc2C(c2c(F)cccc2OC)=NC3)ccc1C(=O)O [ALISERTIB] |  |  | > 30 µM (inactive) | > 30 µM (inactive) | > 30 µM (inactive) | > 30 µM (inactive) | 0.184 µM
CNC(=O)c1ccccc1Sc1ccc2c(/C=C/c3ccccn3)n[nH]c2c1 [AXITINIB] |  | > 30 µM (inactive) | > 30 µM (inactive) |  | > 30 µM (inactive) |  | > 30 µM (inactive)
Cn1cc(C2=C(c3cn(C4CCN(Cc5ccccn5)CC4)c4ccccc34)C(=O)NC2=O)c2ccccc21 [ENZASTAURIN] |  | > 30 µM (inactive) | > 30 µM (inactive) |  |  |  | 
Cc1nc2cc(-n3ncc(C(=O)c4cc5ccccc5[nH]4)c3N)ccc2[nH]1 [FGFR INHIBITOR DEBIO 1347] | > 30 µM (inactive) | > 30 µM (inactive) | > 30 µM (inactive) | > 30 µM (inactive) | > 30 µM (inactive) | > 30 µM (inactive) | 
O=C(Nc1nc2cccc(-c3ccc(CN4CCS(=O)(=O)CC4)cc3)n2n1)C1CC1 [FILGOTINIB] | > 30 µM (inactive) | > 30 µM (inactive) | > 30 µM (inactive) |  | > 30 µM (inactive) | > 30 µM (inactive) | 
COc1ncc(-c2ccc3nccc(-c4ccnnc4)c3c2)cc1NS(=O)(=O)c1ccc(F)cc1F [OMIPALISIB] | > 30 µM (inactive) |  | > 30 µM (inactive) | > 30 µM (inactive) | > 30 µM (inactive) | > 30 µM (inactive) | 
CCCCCCCCCCCCCCCCCCOP(=O)([O-])OC1CC[N+](C)(C)CC1 [PERIFOSINE] | > 30 µM (inactive) | > 30 µM (inactive) | > 30 µM (inactive) | > 30 µM (inactive) | > 30 µM (inactive) | > 30 µM (inactive) | 
CNC(=O)c1cc(Oc2ccc(NC(=O)Nc3cc(C(C)(C)C)nn3-c3ccc4ncccc4c3)c(F)c2)ccn1 [REBASTINIB] | > 30 µM (inactive) | > 30 µM (inactive) | > 30 µM (inactive) | > 30 µM (inactive) | > 30 µM (inactive) |  | 
N#CC1(c2ccc(NC(=O)c3cccnc3NCc3ccncc3)cc2)CCCC1 [RIVOCERANIB] | > 30 µM (inactive) | > 30 µM (inactive) | > 30 µM (inactive) | > 30 µM (inactive) | > 30 µM (inactive) | > 30 µM (inactive) | 
CO[C@H]1C[C@@H]2CC[C@@H](C)[C@@](O)(O2)C(=O)C(=O)N2CCCC[C@H]2C(=O)O[C@H]([C@H](C)C[C@@H]2CC[C@@H](O)[C@H](OC)C2)CC(=O)[C@H](C)/C=C(\C)[C@@H](O)[C@@H](OC)C(=O)[C@H](C)C[C@H](C)/C=C/C=C/C=C/1C [SIROLIMUS] | > 30 µM (inactive) | > 30 µM (inactive) | > 30 µM (inactive) | > 30 µM (inactive) | > 30 µM (inactive) | > 30 µM (inactive) | 
O=C(Cc1ccc(-c2ccc(OCCN3CCOCC3)cc2)cn1)NCc1ccccc1 [TIRBANIBULIN] | > 30 µM (inactive) | > 30 µM (inactive) | > 30 µM (inactive) | > 30 µM (inactive) | > 30 µM (inactive) | > 30 µM (inactive) | 
Cc1cc(Nc2ncnc3ccc(NC4=NC(C)(C)CO4)cc23)ccc1Oc1ccn2ncnc2c1 [TUCATINIB] | > 30 µM (inactive) | > 30 µM (inactive) | > 30 µM (inactive) | > 30 µM (inactive) | > 30 µM (inactive) | > 30 µM (inactive) | 
C[C@@H](N)c1ccc(C(=O)Nc2ccnc3[nH]ccc23)cc1 [Y-39983] |  |  | > 30 µM (inactive) | > 30 µM (inactive) | > 30 µM (inactive) | > 30 µM (inactive) | 

Continued, values first:

Kd [1] | Kd [2] | Kd [3] | Kd [4] | Kd [5] | Kd [6] | Kd [7] | SMILES
 |  | > 30 µM (inactive) | 0.368 µM (active) | > 30 µM (inactive) | 1.25 µM (active) | > 30 µM (inactive) | O=C(Nc1c[nH]nc1-c1nc2cc(CN3CCOCC3)ccc2[nH]1)NC1CC1 [AT-9283]
> 30 µM (inactive) |  | > 30 µM (inactive) | > 30 µM (inactive) | > 30 µM (inactive) | > 30 µM (inactive) |  | Cc1cc(C(=O)NOCCO)c(Nc2ccc(I)cc2F)n(C)c1=O [AZD-8330]
> 30 µM (inactive) | > 30 µM (inactive) | > 30 µM (inactive) | > 30 µM (inactive) | > 30 µM (inactive) | > 30 µM (inactive) |  | CCn1c(C(=O)N(C2CC2)C2CC2)cc2c3c(ncn3C)c(Nc3cc(C)n(C)n3)nc21 [BMS-911543]
 | > 30 µM (inactive) | > 30 µM (inactive) |  | > 30 µM (inactive) |  | > 30 µM (inactive) | C[C@@H](Oc1cc(-n2cnc3ccc(CN4CCN(C)CC4)cc32)sc1C(N)=O)c1ccccc1C(F)(F)F [GSK-461364]
1.93 µM (active) | 1.11 µM (active) | > 30 µM (inactive) | > 30 µM (inactive) |  | > 30 µM (inactive) |  | CCn1cc(-c2ccnc3[nH]c(-c4cccc(CN(C)C)c4)cc23)c(-c2ccc(NC(=O)N(C)C)cc2)n1 [GSK-1070916]
> 30 µM (inactive) | > 30 µM (inactive) | > 30 µM (inactive) | > 30 µM (inactive) | > 30 µM (inactive) | > 30 µM (inactive) |  | NC1(c2ccc(-c3nc4ccn5c(=O)[nH]nc5c4cc3-c3ccccc3)cc2)CCC1 [MK-2206]
 | > 30 µM (inactive) | > 30 µM (inactive) |  | > 30 µM (inactive) | > 30 µM (inactive) |  | CC(=O)NCC(=O)N1[C@@H]2CC[C@H]1c1ccc(Nc3ncc(C(F)(F)F)c(NC4CCC4)n3)cc12 [PF-03814735]
> 30 µM (inactive) | > 30 µM (inactive) | > 30 µM (inactive) | > 30 µM (inactive) | > 30 µM (inactive) | > 30 µM (inactive) |  | Cn1cc(-c2cnn3c(N)c(Br)c([C@@H]4CCCNC4)nc23)cn1 [SCH-900776]
1.86 µM (active) |  | > 30 µM (inactive) | > 30 µM (inactive) | > 30 µM (inactive) | > 30 µM (inactive) |  | CC(C)c1cc(CNc2nc(Nc3cc(C4CC4)[nH]n3)cc(N3CCN(C)CC3)n2)on1 [XL-228]
